Experimental data taken from patent publication US11149030B2, “Plants having increased tolerance to herbicides” (BASF AGRO B.V., priority 2016, dated 2021).
“And” between values parts separate entries of the source, which are not always exact repeats. Identical values can stand only once.

System: T2 soybean events expressing the indicated Amaranthus PPO2 variant transgene
Assay: Soybean PPO inhibitor tolerance testing, injury score (Table C)
Type: in vivo, Soybean cv Jake
Conditions: V2 stage, 3 days after treatment, individual plants
Protocol: Soybean cv Jake is transformed as previously described by Siminszky et al., Phytochem Rev. 5:445-458 (2006). After regeneration, transformants are transplanted to soil in small pots, placed in growth chambers (16 hr day/8 hr night; 25° C. day/23° C. night; 65% relative humidity; 130-150 microE m-2 s-1) and subsequently tested for the presence of the T-DNA via Taqman analysis. After a few weeks, healthy, transgenic positive, single copy events are transplanted to larger pots and allowed to grow in the growth chamber. An optimal shoot for cutting is about 3-4 inches tall, with at least two nodes present. Each cutting is taken from the original transformant (mother plant) and dipped into rooting hormone powder (indole-3-butyric acid, IBA). The cutting is then placed in oasis wedges inside a bio-dome. The mother plant is taken to maturity in the greenhouse and harvested for seed. Wild type cuttings are also taken simultaneously to serve as negative controls. The cuttings are kept in the bio-dome for 5-7 days and then transplanted to 3 inch pots and then acclimated in the growth chamber for two more days. Subsequently, the cuttings are transferred to the greenhouse, acclimated for approximately 4 days prior to spray. […] g ai/ha saflufenacil plus 1% MSO and/or 25-200 g ai/ha 1,5-dimethyl-6-thioxo-3-(2,2,7-trifluoro-3-oxo-4-(prop-2-ynyl)-3,4-dihydro-2H-benzo[b][1,4]oxazin-6-yl)-1,3,5-triazinane-2,4-dione (CAS 1258836-72-4) plus 1% MSO. Other PPO inhibiting herbicides are also tested in a similar fashion for confirming cross resistance: flumioxazin, butafenacil, acifluorfen, lactofen, bifenox, sulfentrazone, methyl 2-[2-chloro-5-[3-chloro-5-(trifluoromethyl)-2-pyridyl]-4-fluoro-phenoxy]-2-methoxy-acetate, ethyl 2-[2-chloro-5-[3-chloro-5-(trifluoromethyl)-2-pyridyl]-4-fluoro-phenoxy]-2-methoxy-acetate, prop-2-ynyl 2-[2-chloro-5-[3-chloro-5-(trifluoromethyl)-2-pyridyl]-4-fluoro-phenoxy]-2-methoxy-acetate and photosynthesis inhibitor diuron as negative control. […]
The following gives a definition of the injury scores measured above: […]

[1] = soybean T2, transgene L397E_F420M, 25 g ai/ha + 1% v/v MSO
[2] = soybean T2, transgene L397E_F420M, 50 g ai/ha + 1% v/v MSO
[3] = soybean T2, transgene L397E_F420M, 100 g ai/ha + 1% v/v MSO
[4] = soybean T2, transgene L397E_F420M, 200 g ai/ha + 1% v/v MSO
[5] = soybean T2, transgene L397Q_F420M, 25 g ai/ha + 1% v/v MSO
[6] = soybean T2, transgene L397Q_F420M, 50 g ai/ha + 1% v/v MSO
[7] = soybean T2, transgene L397Q_F420M, 100 g ai/ha + 1% v/v MSO
[8] = soybean T2, transgene L397Q_F420M, 200 g ai/ha + 1% v/v MSO
[9] = soybean T2, transgene R128A_F420I event 1, 25 g ai/ha + 1% v/v MSO
[10] = soybean T2, transgene R128A_F420I event 1, 50 g ai/ha + 1% v/v MSO
[11] = soybean T2, transgene R128A_F420I event 1, 100 g ai/ha + 1% v/v MSO
[12] = soybean T2, transgene R128A_F420I event 1, 200 g ai/ha + 1% v/v MSO
[13] = soybean T2, transgene R128A_F420I event 2, 25 g ai/ha + 1% v/v MSO
[14] = soybean T2, transgene R128A_F420I event 2, 50 g ai/ha + 1% v/v MSO
[15] = soybean T2, transgene R128A_F420I event 2, 100 g ai/ha + 1% v/v MSO
[16] = soybean T2, transgene R128A_F420I event 2, 200 g ai/ha + 1% v/v MSO
[17] = soybean T2, transgene R128A_F420I event 3, 25 g ai/ha + 1% v/v MSO
[18] = soybean T2, transgene R128A_F420I event 3, 50 g ai/ha + 1% v/v MSO
[19] = soybean T2, transgene R128A_F420I event 3, 100 g ai/ha + 1% v/v MSO
[20] = soybean T2, transgene R128A_F420I event 3, 200 g ai/ha + 1% v/v MSO
[21] = soybean T2, transgene R128A_F420V, 25 g ai/ha + 1% v/v MSO
[22] = soybean T2, transgene R128A_F420V, 50 g ai/ha + 1% v/v MSO
[23] = soybean T2, transgene R128A_F420V, 100 g ai/ha + 1% v/v MSO
[24] = soybean, Non transgenic, 25 g ai/ha + 1% v/v MSO
[25] = soybean, Non transgenic, 50 g ai/ha + 1% v/v MSO
[26] = soybean, Non transgenic, 100 g ai/ha + 1% v/v MSO
[27] = soybean, Non transgenic, 200 g ai/ha + 1% v/v MSO

Compound	injury on a 0-9 point scale [1]	injury on a 0-9 point scale [2]	injury on a 0-9 point scale [3]	injury on a 0-9 point scale [4]	injury on a 0-9 point scale [5]	injury on a 0-9 point scale [6]	injury on a 0-9 point scale [7]	injury on a 0-9 point scale [8]	injury on a 0-9 point scale [9]	injury on a 0-9 point scale [10]	injury on a 0-9 point scale [11]	injury on a 0-9 point scale [12]	injury on a 0-9 point scale [13]	injury on a 0-9 point scale [14]	injury on a 0-9 point scale [15]	injury on a 0-9 point scale [16]	injury on a 0-9 point scale [17]	injury on a 0-9 point scale [18]	injury on a 0-9 point scale [19]	injury on a 0-9 point scale [20]	also measured
C#CCOC(=O)C(OC)Oc1cc(-c2ncc(C(F)(F)F)cc2Cl)c(F)cc1Cl (stereo not shown) [prop-2-ynyl 2-[2-chloro-5-[3-chloro-5-(trifluoromethyl)-2-pyridyl]-4-fluoro-phenoxy]-2-methoxy-acetate]	1 and 0 and 9	0 (2×) and 1	1	3 (2×) and 4	0	2 and 1 and 0	1 and 2 (2×)	1 (2×) and 2	0	2 and 3 and 4	5	5 (2×) and 4	0	2 (2×) and 3	4 (2×) and 5	5	0	2	1	3 and 4	injury on a 0-9 point scale [21]: 2; injury on a 0-9 point scale [22]: 4 (2×) and 5; injury on a 0-9 point scale [23]: 4; injury on a 0-9 point scale [24]: 9; injury on a 0-9 point scale [25]: 9; injury on a 0-9 point scale [26]: 9; injury on a 0-9 point scale [27]: 9
CCOC(=O)C(OC)Oc1cc(-c2ncc(C(F)(F)F)cc2Cl)c(F)cc1Cl (stereo not shown) [ethyl 2-[2-chloro-5-[3-chloro-5-(trifluoromethyl)-2-pyridyl]-4-fluoro-phenoxy]-2-methoxy-acetate]	0 (2×) and 9	0 (2×) and 2	3 (2×) and 9	4 and 3 and 5	1 and 9	9 and 3 and 2	2	2 and 9	0 (2×) and 1	0 (2×) and 1	4	4 (2×) and 5	2 and 5 and 1	1 and 2	5 and 9	7 and 4 (2×)	1	1	3 and 2	3 (2×) and 4	injury on a 0-9 point scale [21]: 0; injury on a 0-9 point scale [22]: 5; injury on a 0-9 point scale [23]: 4; injury on a 0-9 point scale (soybean T2, transgene R128A_F420V, 200 g ai/ha + 1% v/v MSO): 4 and 5; injury on a 0-9 point scale [24]: 9; injury on a 0-9 point scale [25]: 9; injury on a 0-9 point scale [26]: 9; injury on a 0-9 point scale [27]: 9
